Values of other authors as cited in patent publication US20150147306A1, “COMPOSITION FOR TREATING A CIRCADIAN RHYTHM DISORDER” (priority 2012, published 2015).

Settings: in humans

- half-life in the serum: 35 to 50 min
SMILES: COc1ccc2[nH]cc(CCNC(C)=O)c2c1 [melatonin]
